Measured values taken from patent US10686136B2, “Hole transporting material, OLED display panel and electronic device comprising the same” (SHANGHAI TIANMA AM-OLED CO., LTD., priority 2016, dated 2020).
≈ marks a conversion by molar mass, not a printed value.

Legend:
[1] = cited from earlier work
[2] = prior art material of CN103108859; cited from earlier work
[3] = Hole mobility rate of the hole transporting material; type: physicochemical; settings: hole transporting layer material
Solubility in NMP = type: physicochemical; settings: NMP solvent
[4] = commercially available hole transporting layer material

| Structure (SMILES) | hole mobility rate [3] | further results |
| --- | --- | --- |
| CC1(C)c2ccccc2-c2ccc(N(c3ccc4c(c3)C3(c5ccccc5-c5ccccc53)c3ccccc3-4)c3ccccc3-c3ccccc3)cc21 | – | mobility rate ([1]; prior art material of CN103108859): higher; solubility [2]: good |
| c1ccc(-c2ccc(N(c3ccc(-c4ccccc4)cc3)c3ccc(-c4ccc(N(c5ccc(-c6ccccc6)cc5)c5ccc(-c6ccccc6)cc5)c5c4CCCC5)cc3)cc2)cc1 [Com. Example 3] | 7×10^−5 cm^2/V·S | – |
| Cc1cccc(-c2ccc(N(c3ccc(-c4cccc5c4CCCC5)cc3)c3ccc(-c4ccc(N(c5ccc(-c6cccc(C)c6)cc5)c5ccc(-c6cccc7c6CCCC7)cc5)c5c4CCCC5)cc3)cc2)c1 [Example 2] | 2.1×10^−4 cm^2/V·S | – |
| Cc1cc(N(c2ccc(-c3ccccc3)cc2)c2ccc(-c3cccc4c3CCCC4)cc2)ccc1-c1ccc(N(c2ccc(-c3ccccc3)cc2)c2ccc(-c3cccc4c3CCCC4)cc2)cc1 [Example 3] | 1.8×10^−4 cm^2/V·S | – |
| Cc1ccccc1-c1ccc(N(c2ccc(-c3ccccc3)cc2)c2ccc(-c3ccc(N(c4ccc(-c5ccccc5)cc4)c4ccc(-c5ccccc5C)c5c4CCCC5)c4c3CCCC4)cc2)c2c1CCCC2 [Example 4] | 1.9×10^−4 cm^2/V·S | – |
| c1ccc(-c2ccc(N(c3ccc(-c4ccccc4)cc3)c3ccc(N(c4ccc(-c5ccccc5)cc4)c4ccc(-c5ccccc5)cc4)cc3)cc2)cc1 [drawing 1] | – | lateral mobility rate [1, 4]: not very high; longitudinal mobility rate [1, 4]: higher |

Now from value to molecule, other results behind:

| hole mobility rate [3] | Structure (SMILES) | further results |
| --- | --- | --- |
| 3×10^−4 cm^2/V·S | c1ccc(-c2ccc(N(c3ccc(-c4ccccc4)cc3)c3ccc(-c4ccc(N(c5ccc(-c6ccccc6)cc5)c5ccc(-c6ccccc6)cc5)cc4)cc3)cc2)cc1 [Com. Example 1] | – |
| 3.5×10^−4 cm^2/V·S | Cc1ccc(-c2ccc(N(c3ccc(-c4ccccc4)cc3)c3ccc(-c4ccc(N(c5ccc(-c6ccccc6)cc5)c5ccc(-c6ccc(C)cc6)cc5)cc4)cc3)cc2)cc1 [Com. Example 2] | solubility in NMP (Solubility in NMP): 2200 µg/mL (≈ 2.68 mM) |
| 2×10^−4 cm^2/V·S | c1ccc(-c2ccc(N(c3ccc(-c4ccccc4)cc3)c3ccc(N(c4ccc(-c5ccccc5)cc4)c4ccc(-c5ccccc5)cc4)cc3)cc2)cc1 [Com. Example 4] | – |
| 0.00041 cm²/(V·s) | Cc1ccc(-c2ccc(N(c3ccc(-c4ccccc4)cc3)c3ccc(-c4ccc(N(c5ccc(-c6ccccc6)cc5)c5ccc(-c6ccc(C)cc6)cc5)c5c4CCCC5)cc3)cc2)cc1 [Example 1] | solubility in NMP (Solubility in NMP): 10000 µg/mL (≈ 11.4 mM) |
